Test results taken from patent publication US7732178B2, “Laccase enzymes and their uses” (AB Enzymes Oy, priority 2004, dated 2010).
Several values for one entry are separate records, joined by “and”; a condition that tells them apart may be missing. Identical values can stand only once. Like-named read-outs stand apart in the source and are kept apart here.

What was measured:
[1] = molecular target: T1, Thielavia arenaria ALKO4197 laccase TaLcc1, recombinant, SEQ ID NO: 39 (Canariomyces arenarius, UniProt F6N9E7); assay type: biochemical
T1 construct: plasmid pALK1342 (DSM 15484)
Protocol: (§1) On syringaldazin and DMP 40 mM MES buffer, pH 6 was used. All activity assays were carried out at 25° C. Kinetic parameters were estimated by a nonlinear regression curve fit. The values were compared to those of Melanocarpus albomyces MaL, laccase.

[2] = tested on: Thielavia arenaria ALKO4197 laccase TaLcc4, recombinant, SEQ ID NO: 45; assay: Kinetic parameters of TaLcc4; assay type: biochemical
Protocol: as §1

[3] = molecular target: T2, Melanocarpus albomyces laccase (MaL) (Melanocarpus albomyces, UniProt Q70KY3); assay: Kinetic parameters of MaL; assay type: biochemical
T2 sequence (Q70KY3 51-609): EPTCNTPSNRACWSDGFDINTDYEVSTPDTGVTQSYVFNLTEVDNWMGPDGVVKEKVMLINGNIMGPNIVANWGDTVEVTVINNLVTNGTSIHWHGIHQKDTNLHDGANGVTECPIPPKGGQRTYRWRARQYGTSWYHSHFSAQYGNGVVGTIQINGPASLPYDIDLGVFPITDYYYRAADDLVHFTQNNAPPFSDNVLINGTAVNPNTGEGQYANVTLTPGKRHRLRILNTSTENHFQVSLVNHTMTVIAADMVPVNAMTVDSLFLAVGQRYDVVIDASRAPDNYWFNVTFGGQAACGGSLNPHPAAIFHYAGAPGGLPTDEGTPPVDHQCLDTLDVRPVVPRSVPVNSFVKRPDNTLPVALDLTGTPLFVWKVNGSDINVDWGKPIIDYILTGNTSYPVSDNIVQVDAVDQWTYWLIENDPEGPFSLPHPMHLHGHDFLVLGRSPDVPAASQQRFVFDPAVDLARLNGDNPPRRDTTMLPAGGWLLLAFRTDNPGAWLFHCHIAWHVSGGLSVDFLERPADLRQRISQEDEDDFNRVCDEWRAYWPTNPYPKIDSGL
Protocol: as §1

[4] = tested on: Thielavia arenaria ALKO4197 laccase TaLcc3, recombinant, SEQ ID NO: 43; assay: Kinetic parameters of TaLcc3; assay type: biochemical
Protocol: as §1

[5] = tested on: Thielavia arenaria ALKO4197 laccase TaLcc4, recombinant, SEQ ID NO: 45; assay type: biochemical
Protocol: (§2) The inhibition effect of different compounds on the activity of the laccases was determined as described in Example 2. except with Talcc4, with which the inhibition was analyzed using spectroscopic activity assay.

[6] = molecular target: T1, Thielavia arenaria ALKO4197 laccase TaLcc1, recombinant, SEQ ID NO: 39; assay: biochemical
Protocol: as §2

[7] = tested on: Chaetomium thermophilum ALKO4265 laccase, purified wild type (CtL; CtLcc1); assay type: biochemical; details: pH 5
[8] = molecular target: Thielavia arenaria ALKO4197 laccase, purified wild type (TaLcc; TaLcc1) (Canariomyces arenarius, UniProt F6N9E7); assay: biochemical; details: pH 5
TaLcc1 = assay type: biochemical, Thielavia arenaria
Protocol: as §2

TaLcc2 = assay type: biochemical, Thielavia arenaria
Protocol: as §2

[9] = tested on: wild type Thielavia (TaLcc) laccase; assay type: biochemical, Thielavia arenaria; details: pH 5
[10] = tested on: wild type Chaetomium (CtL) laccase; assay type: biochemical, Chaetomium thermophilum; details: pH 5
CtLcc1 = assay type: biochemical, Chaetomium thermophilum
Protocol: as §2

TaLcc4 = assay type: biochemical, Thielavia arenaria; details: inhibitor 0.5 mM; spectrofotometric ABTS assay
[11] = molecular target: T3, Thielavia arenaria ALKO4197 laccase TaLcc2, recombinant, SEQ ID NO: 41 (Canariomyces notabilis, UniProt A0AAN6TC87); assay type: biochemical
T3 construct: plasmid pALK1347 (DSM 15486)
T3 sequence (A0AAN6TC87 entry or part of it): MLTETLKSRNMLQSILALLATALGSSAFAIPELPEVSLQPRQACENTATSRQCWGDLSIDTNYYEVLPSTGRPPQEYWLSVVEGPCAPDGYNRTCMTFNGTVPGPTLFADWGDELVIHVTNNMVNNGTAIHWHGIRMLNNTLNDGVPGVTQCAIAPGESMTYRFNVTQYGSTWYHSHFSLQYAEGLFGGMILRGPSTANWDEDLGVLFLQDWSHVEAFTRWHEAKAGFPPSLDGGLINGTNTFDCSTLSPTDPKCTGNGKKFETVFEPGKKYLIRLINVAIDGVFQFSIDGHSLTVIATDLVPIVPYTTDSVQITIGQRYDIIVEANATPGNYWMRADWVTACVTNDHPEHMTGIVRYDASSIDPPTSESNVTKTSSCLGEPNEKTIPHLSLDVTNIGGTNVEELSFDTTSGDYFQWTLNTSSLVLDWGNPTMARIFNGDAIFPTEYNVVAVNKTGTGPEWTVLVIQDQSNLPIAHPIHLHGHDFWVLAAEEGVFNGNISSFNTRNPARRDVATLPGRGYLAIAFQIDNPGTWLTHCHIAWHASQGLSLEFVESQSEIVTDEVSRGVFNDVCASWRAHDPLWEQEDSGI
Protocol: as §2

[12] = molecular target: T4, Chaetomium thermophilum ALKO4265 laccase CtLcc1, recombinant, SEQ ID NO: 47 (Thermochaetoides thermophila, UniProt G0S3A5); assay type: biochemical
T4 construct: plasmid pALK1304 (DSM 15075)
T4 sequence (G0S3A5 entry or part of it): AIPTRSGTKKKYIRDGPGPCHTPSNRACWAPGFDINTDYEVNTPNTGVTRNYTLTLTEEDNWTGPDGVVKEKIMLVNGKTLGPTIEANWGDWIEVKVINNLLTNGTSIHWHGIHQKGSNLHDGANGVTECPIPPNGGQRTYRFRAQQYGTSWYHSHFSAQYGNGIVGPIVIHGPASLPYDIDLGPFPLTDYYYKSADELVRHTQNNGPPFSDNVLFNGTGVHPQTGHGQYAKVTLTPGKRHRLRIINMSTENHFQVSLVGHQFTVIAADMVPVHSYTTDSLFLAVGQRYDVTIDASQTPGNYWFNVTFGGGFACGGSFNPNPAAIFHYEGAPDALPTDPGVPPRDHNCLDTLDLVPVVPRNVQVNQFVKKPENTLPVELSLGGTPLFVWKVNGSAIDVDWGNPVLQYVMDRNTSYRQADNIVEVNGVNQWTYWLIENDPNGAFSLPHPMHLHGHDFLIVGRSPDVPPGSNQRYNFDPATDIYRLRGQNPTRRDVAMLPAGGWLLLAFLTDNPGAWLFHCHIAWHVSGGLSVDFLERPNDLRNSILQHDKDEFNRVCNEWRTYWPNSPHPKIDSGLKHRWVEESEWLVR
Protocol: as §2

[13] = Specific activity towards ABTS; assay type: biochemical; details: 25 mM succinate buffer pH 4.5, 25° C.
Protocol: The activity assay was carried out in accordance with the method developed by Niku-Paavola et al. (1988). The sample was diluted with 0.025 M succinate buffer, pH 4.5. […] The activity is expressed as nano katals.
(§3) Specific activities of the purified T. arenaria and C. thermophilum laccases were determined towards different laccase substrates.

[14] = Specific activity towards di-methoxy-phenol (DMP); assay type: biochemical; details: 25 mM MES buffer, pH 5.5
Protocol: as §3

[15] = Specific activity towards guaiacol; assay type: biochemical; details: 25 mM MES buffer, pH 5.5
Protocol: as §3

[16] = Isoelectric focusing (pI); assay type: physicochemical; details: pH range 3-9
Protocol: Molecular weight of the T. arenaria and C. thermophilum laccases were determined on SDS-PAGE according to Laemmli (1970) The gels used in the SDS-PAGE analysis were ready-made 12% Tris HCl gels (BioRad). Protein bands were visualized by staining with Coomassie Brilliant Blue (R 350; Pharmacia) and compared with molecular weight markers (Prestained Protein Marker Broad Range #7708S; New England BioLabs, Beverly, Mass.). The molecular weight of the both laccases was approximately 80 kDa. The isoelectric point of the laccases was determined with isoelectric focusing within the pH range of 3-9 (Pharmalyte IEF, Pharmacia) on a LKB 2117 Multiphor II Electrophoresis System (LKB Pharmacia, Bromma, Sweden) according to the manufacturer's instructions.
(§4) The purified recombinant Thielavia and Chaetomium laccases were characterized in terms of pH optimum, thermal stability, and pI as described in Example 2. The molecular weight was determined by MALDI-TOF mass spectrometry on a Ultraflex™ time-of-flight instrument (BrukerDaltonics, Germany) as previously described (Palonen et al., 2003). The redox-potentials of the T1 coppers of for CtLcc, and TaLcc2 laccases were determined by photometric copper titration in 0.1 M KH2PO4 (pH 6.0) as described by Xu et al. (1996) using the redox titrant couple K3Fe(CN)6/K4Fe(CN)6. The redox potential of TaLcc1 was determined with a combined Pt—AgCl/KCl microelectrode at pH 5.0 according to Sigoillot et al (2004). The characterization results are collected to Table 14.

[17] = Specific activity towards syringaldazine; assay type: biochemical; details: 25 mM MES buffer, pH 5.5
Protocol: as §3

[18] = Stain removal, tea soiling; set-up: key to Tea L* / Tea a* / Tea b*: CIE L*a*b* color coordinates from reflectance; details: 60 min, 40° C., pH 6; enzyme 20 nkat/g + mediator 2 mg/g (Mediator only: 0 nkat/g)
Protocol: (§5) Laccases CtLcc1, TaLcc2, TaLcc4 and Denilite II Base (Example 7) were tested for their ability to remove stains. The following artificially soiled test cloths were used: grass soiling (Art.164, EMPA Testmaterialen, Germany), tea soiling (Art. 167, EMPA Testmaterialen, Germany). The fabric was cut in 5.8×5.8 cm swatches. Laccase treatments were performed in LP-2 Launder Ometer as follows. About 5 g of soiled fabrics were loaded into 1.2 liter containers containing 150 ml Mc Ilvaine's citrate phosphate buffer pH 6 and the containers were temperated. Enzyme with or without the mediator (methyl syringate, DeniLite II Assist, Novozymes) was added as laccase activity units (Example 7). Enzyme was dosed 200 nkat/g and the mediator 10 mg/g on the weight of fabric, except at 40° C. dosages of 20 nkat/g and 2 mg/g were also used. The Launder Ometer was run at 40, 50 or 60° C. and pH 6 for 60 min. After that the swatches were carefully rinsed under running water and in shake flasks containing warm water and dried in the air.
(§6) The stain removal effect was evaluated by measuring the colour as reflectance values using L*a*b* color space coordinates (Example 7). The colour of the swatches was measured before and after the laccase treatment.

[19] = Redox potential, combined Pt-AgCl/KCl microelectrode; assay type: physicochemical; details: combined Pt-AgCl/KCl microelectrode at pH 5.0
Protocol: as §4

[20] = Stain removal, grass soiling; set-up: key to Grass L* / Grass a* / Grass b*: CIE L*a*b* color coordinates from reflectance; details: 60 min, 40° C., pH 6; enzyme 20 nkat/g + mediator 2 mg/g (Mediator only: 0 nkat/g)
Protocol: as §5, §6

[21] = 25 mM succinate buffer pH 4.5, 25° C.

CCn1c(=NN=c2sc3cc(S(=O)(=O)O)ccc3n2CC)sc2cc(S(=O)(=O)O)ccc21 [ABTS, 2,2′azinobis-3-ethylbenzthiazole-6-sulphonate]
Km ([1]; pH 4.5): 75 µM
kcat ([1]; pH 4.5): 68.83 s⁻¹
Km [2, 21]: 2470 µM
kcat [2, 21]: 143.5 s⁻¹
kcat ([3]; pH 4.5): 78.17 s⁻¹
Km [4, 21]: 1040 µM
kcat [4, 21]: 0.617 s⁻¹

COc1cccc(OC)c1O [DMP, 2,6-dimethoxy phenol]
Km ([1]; 40 mM MES buffer, pH 6, 25° C.): 17 µM
kcat ([1]; 40 mM MES buffer, pH 6, 25° C.): 67.17 s⁻¹
Km ([2]; 40 mM MES buffer, pH 6, 25° C.): 1900 µM
kcat ([2]; 40 mM MES buffer, pH 6, 25° C.): 26.5 s⁻¹
kcat ([3]; 40 mM MES buffer, pH 6, 25° C.): 69.33 s⁻¹
Km ([4]; 40 mM MES buffer, pH 6, 25° C.): 14 µM
kcat ([4]; 40 mM MES buffer, pH 6, 25° C.): 0.083 s⁻¹

O=C(O)CN(CCN(CC(=O)O)CC(=O)O)CC(=O)O [EDTA]
Inhibition (%) [5]: 2%
inhibition at 10000 µM [6]: 5%
Inhibition (%) [7]: 0%
inhibition at 10000 µM [8]: 0%

[Cl-].[Na+] [NaCl]
Inhibition (%) TaLcc1 (TaLcc1): 0%
Inhibition (%) TaLcc2 (TaLcc2): 20% and 30%
Inhibition (%) TaLcc [9]: 35% and 42%
Inhibition (%) CtL [10]: 0% and 10%
Inhibition (%) CtLcc1 (CtLcc1): 0% and 10%

[N-]=[N+]=[N-].[Na+] [NaN3]
Inhibition (%) TaLcc1 (TaLcc1; inhibitor 0.5 mM): 95%
Inhibition (%) TaLcc2 (TaLcc2; inhibitor 0.5 mM): 95%
Inhibition (%) CtL [10]: 100%
Inhibition (%) TaLcc4 (TaLcc4): 95%
Inhibition (%) [5]: 95%
Inhibition (%) [11]: 95%
Inhibition (%) [12]: 100%
Inhibition (%) [7]: 100%
Inhibition (%) CtLcc1 (CtLcc1; inhibitor 0.5 mM): 100%

COc1cc(C=NN=Cc2cc(OC)c(O)c(OC)c2)cc(OC)c1O [Syringaldazin, syringaldazin]
Km ([1]; 40 mM MES buffer, pH 6, 25° C.): 4.3 µM
kcat ([1]; 40 mM MES buffer, pH 6, 25° C.): 32.33 s⁻¹
Km ([2]; 40 mM MES buffer, pH 6, 25° C.): 115 µM
kcat ([2]; 40 mM MES buffer, pH 6, 25° C.): 15.5 s⁻¹
kcat ([3]; 40 mM MES buffer, pH 6, 25° C.): 78.5 s⁻¹
Km ([4]; 40 mM MES buffer, pH 6, 25° C.): 4.3 µM
kcat ([4]; 40 mM MES buffer, pH 6, 25° C.): 0.2 s⁻¹

B1: TaLcc1: Thielavia arenaria ALKO 4197 laccase, SEQ ID NO: 39, produced in Trichoderma reesei (protein)
chain: MKSWAAAVALMVGILSPHAAAAPPANPVQRDMLQVLEARQSGPTCNTPSNRACWTNGFDINTDYEVSTPNTGRTVAYQLTLTEKENWIGPDGVLKNVVMLVNDKIIGPTIRANWGDNIEVTVINNLKTNGTSMHWHGLRQLGNVFNDGANGVTECPIPPKGGRKTYKFRATQYGTSWYHSHFSAQYGNGVVGTIQIDGPASLPYDIDLGVFPLMDYYYRSADELVHFTQSNGAPPSDNVLFNGTARHPETGAGQWYNVTLTPGKRHRLRIINTSTDNHFQVSLVGHNMTVIATDMVPVNAFTVSSLFLAVGQRYDVTIDANSPVGNYWFNVTFGDGLCGSSNNKFPAAIFRYQGAPATLPTDQGLPVPNHMCLDNLNLTPVVTRSAPVNNFVKRPSNTLGVTLDIGGTPLFVWKVNGSAINVDWGKPILDYVMSGNTSYPVSDNIVQVDAVDQWTYWLIENDPTNPIVSLPHPMHLHGHDFLVLGRSPDELPSAGVRHIFDPAKDLPRLKGNNPVRRDVTMLPAGGWLLLAFKTDNPGAWLFHCHIAWHVSGGLSVDFLERPNDLRTQLNSNAKRADRDDFNRVCREWNAYWPTNPFPKIDSGLRHRFVEESEWMVR
modifications: Thielavia arenaria ALKO4197; (1)..(617) Deduced amino acid sequence of Thielavia arenaria ALKO4197 TaLcc1
Specific activity on ABTS [13]: 910 nkat/mg
Specific activity on DMP [14]: 285 nkat/mg
Specific activity on guaiacol [15]: 61 nkat/mg
pI [16]: 5.5-6.9
Specific activity on syringaldazin [17]: 340 nkat/mg
Tea L* [18]: 77.17
Tea a* [18]: 4.65
Tea b* [18]: 24.40
E^0 [19]: 560 mV
Grass L* [20]: 80.16
Grass a* [20]: −0.73
Grass b* [20]: 16.20
